Residues, ends and D or L forms follow the SMILES beside them.

By melting point is commonly meant the temperature of the solid-liquid transition. As for `O=C(O)CCC1(C(=O)O)NCC(=O)N1` (configuration not stated), the melting point was in the range of 202 to 205 °C.

The compound `COc1cc(C(=O)c2ccc(CC(=O)O)s2)cc(OC)c1OC` displayed a melting point of 124 °C.

With `CSc1ccc([N+](=O)[O-])c(C(=O)NCC2CCN(C(c3ccccc3)c3ccccc3)CC2)c1`, the melting point was in the range of 179 to 181 °C.

`O=C1CCc2c1ccc1c2CCc2ccccc2-1` showed a melting point of 127 to 128 °C.

Take `Cc1ccc(-c2cnc(-c3cc(C(F)(F)F)cs3)s2)s1`: the melting point fell in the range of 131 to 133 °C.

Turning to `CONC(=O)CC1=C(C)/C(=C/c2ccc(S(C)=O)cc2)c2ccc(F)cc21` (configuration not stated), the melting point was in the range of 177 to 179 °C.

In turn, `COCCOc1ccc(CCC2(O)CN3CCC2CC3)cc1` (configuration not stated) gave a melting point of 116 to 117 °C.

`NCC1(c2cccc(C(F)(F)F)c2)CCN(C(=O)CN2CCN(c3cnccn3)CC2)CC1` yielded a melting point of 152 to 153 °C.

With `CCOC(=O)c1c[nH]c2c(=O)ccc(NC(=O)CC)cc2c1=O`, the melting point was greater than 250 °C.

Compound `OC1N=C(c2ccccc2Cl)c2cc(Cl)ccc2-c2ncncc21` (configuration not stated) returned a melting point of 105 to 117 °C.

The compound `CCCCCCCCCCCCCCCCCCOc1cc(OCCCOc2ccccc2OCc2ccccc2)cc(C(=O)OCc2ccccc2)c1` returned a melting point of 49 to 50 °C.

Consider `CC[C@H](C)[C@H](NC(=O)[C@@H]1CCCN1C(=O)OCc1ccccc1)C(=O)NCC(C)C`, for which the melting point lay within 87 to 88 °C.

With `NS(=O)(=O)c1cccc(-c2cccc(-c3nc(-c4ccc(C(F)(F)F)cc4)cc(C(F)F)n3)c2)c1`, the melting point stood at 204 °C.

As to `O=c1[nH]c2cc(Br)c3c(c2[nH]c1=O)CN(Cc1ccccc1)CC3`, the melting point was 297 to 302 °C.

On to `O=C(O)C1CCCc2c(noc2-c2ccc(Cl)cc2)C1` (configuration not stated), for which the melting point lay in the range of 231 to 233 °C.

For `O=C1CC2(C(=O)N1)C(=O)N(Cc1ccc(Cl)c(Cl)c1)c1ccc(F)cc12` (configuration not stated), the melting point fell in the range of 253 to 254 °C.

Regarding `CC(C)(C)OC(=O)c1ccc([N+](=O)[O-])c(CBr)c1`, the melting point fell in the range of 61 to 65 °C.

Take `CCCCOc1ccc(-c2ccc3c(c2)C=C(C(=O)O)CCS3(=O)=O)cc1`: the melting point is 244 to 247 °C.

Turning to `CCCc1c(C(=O)C(C)C)c2ccc(C(=O)OC)cc2n1Cc1ccc(Br)cc1F`, the melting point lay within 110 to 112 °C.

`Nc1ccccc1NCCCCCCCCCCCCNc1ccccc1N`: the melting point fell in the range of 85 to 88 °C.

With `O=c1ccc(S(=O)(=O)c2cc3ccccc3[nH]2)n[nH]1`, the melting point fell in the range of 248 to 249 °C.

Compound `N#CN1c2ccccc2CC(O)c2ccccc21` (configuration not stated) showed a melting point of 117 to 118 °C.

For the compound `COc1ncccc1-c1cnn2ccc(N3CCN(C(=O)OC(C)C)CC3)nc12`, the melting point is 131 to 132 °C.

Regarding `CCCCOC(=O)C(=O)Nc1nc2ccccc2s1`, the melting point fell in the range of 137 to 138 °C.

`O=C(O)[C@@H]1Cc2ccccc2C[C@H]1C(=O)O` (relative stereo) had a melting point of 229 to 232 °C.

With `COc1ccc(CN(C)CCCCc2ccc(NC(=O)c3cccc4c(=O)c5cccc([N+](=O)[O-])c5[nH]c34)cc2)cc1OC`, the melting point came to 174 °C.

`Cc1cccc(-c2nc3ccccn3c2-c2ccnc(-c3ccc(N4CCOCC4)cc3)c2)n1` had a melting point of 190 °C.

Compound `O=C(c1nc(-c2ccccc2)nc2ccccc12)N1CCC(CCO)CC1` yielded a melting point of 146 °C.

Compound `CCOC(=O)NN=Cc1c[nH]c(Cc2ccccc2)n1` yielded a melting point of 184 to 185 °C.

Consider `CC(=O)c1cn(Cc2ccccc2)c(=O)[nH]c1=O`, for which the melting point fell in the range of 196 to 197 °C.

For the compound `Nc1nc2cc(Br)ccn2n1`, the melting point is 190 to 192 °C.

`CCC1(C)NC(=O)N=C1SCc1ccccc1N(C)C` (configuration not stated): the melting point was in the range of 111 to 113 °C.

Consider `CNC(=O)NCCN(c1ccc(Cl)cc1Cc1c(F)cccc1F)S(=O)(=O)c1ccc(OC)c(OC)c1`, for which the melting point is 106 °C.

Regarding `Cn1nc2c(N)nc3ccccc3c2c1CC(C)(C)NC(=O)c1ccccc1`, the melting point fell in the range of 194 to 196 °C.

`COC(=O)c1ccc2cc(OC)c(OC)cc2c1-c1ccnc(Cl)c1` registered a melting point of 142 to 145 °C.

As for `C=C1CC(COc2ccc3ccc(=O)oc3c2)(c2ccccc2)OC1=O` (configuration not stated), the melting point was in the range of 105 to 106 °C.

The compound `CCOC(=O)c1sc(Br)c(Br)c1Cl` showed a melting point of 58 to 63 °C.

`NC(=O)N(O)CC(=O)Nc1ccc(Oc2ccccc2)cc1` registered a melting point of 190 °C.

Consider `O=C1OC(CCCCN2CCN(c3ccccc3O)CC2)CN1c1ccccc1` (configuration not stated), for which the melting point lay in the range of 123 to 129 °C.

The compound `CC(=O)c1cc(Oc2ccc(NC(=O)Nc3ccccc3C(F)(F)F)cc2)ncn1` showed a melting point of 149 to 151 °C.

Compound `O=C1CCC2=C1C(c1ccc(Br)cc1)C1=C(CCS1)N2` (configuration not stated) yielded a melting point of 253 to 256 °C.

For the compound `CC(C)OC(=O)c1cc([N+](=O)[O-])c(O)c([N+](=O)[O-])c1`, the melting point was in the range of 108 to 110 °C.

On to `CC(C)OCc1nc(N)c2nccnc2n1`, for which the melting point is 139 to 141 °C.

Regarding `CC(=O)NC(Cc1ccccc1)C(=O)NC(Cc1ccccc1)C(=O)NC(Cc1c[nH]cn1)C(=O)O` (stereo not drawn) (Ac-Phe-Phe-His-OH; configuration not given here), the melting point was 143 to 145 °C.

Consider `CC1(C)COC(c2cc3c(O)cccc3o2)=N1`, for which the melting point lay within 187 to 188 °C.

`NC(=O)c1c(Cl)ccc(Br)c1Cl` displayed a melting point of 117 to 119 °C.

In turn, `CC(=O)NC[C@H]1CN(c2ccc(N3CCN(C(=O)CCCC(=O)c4ccc(NC(=O)CN)cc4)CC3)c(F)c2)C(=O)O1` came in with a melting point of 178 to 181 °C.

For the compound `O=C(c1cccs1)C1(c2ccc(Cl)cc2)CCC1`, the melting point lay in the range of 74 to 76 °C.

In turn, `CC(Cl)(Cl)C(NC(=O)c1cccc(F)c1)NC(=NC#N)Nc1ccc(Cl)nc1` (configuration not stated) had a melting point of 191 to 192 °C.

For the compound `CN(C)c1ncc(-c2cccc(-n3cnc4cc(-c5ccoc5)ccc43)c2)cn1`, the melting point fell in the range of 183 to 184 °C.

On to `O=C(O)c1cccc2c1CCc1cccc(O)c1S2`, for which the melting point was in the range of 171 to 173 °C.

`CC(C)(C)OC(=O)NCc1cc(N)ccc1Cl` returned a melting point of 75 to 77 °C.

For `CC(=O)Nc1cscc1C(=O)O`, the melting point was 206 °C.

Compound `Oc1ccc(NCCCCCCBr)cc1` gave a melting point of 123 to 126 °C.

`CNC1N=CN(c2c(C)cccc2Cl)C(=O)N1` (configuration not stated) registered a melting point of 254 to 256 °C.

The compound `CNC1=NN(C(=O)c2ccccc2C(F)(F)F)C(C)(C)S1` yielded a melting point of 164 to 169 °C.

Consider `CSc1nc(Cl)c(-c2c(F)cccc2Cl)c(NC(C)C)n1`, for which the melting point fell in the range of 94 to 98 °C.

In turn, `Cc1ccc(S(=O)(=O)N2[C@H](CCCc3nnn(C)n3)CC[C@@H]2c2ccc(F)cc2)cc1` (racemic) came in with a melting point of 107 °C.

Take `O=C1OC(CCc2ccccc2)(c2ccccc2)CC(O)=C1Sc1ccccc1` (configuration not stated): the melting point lay within 58 to 60 °C.

In the case of `CC1(c2nn(-c3ccc(N)cc3Cl)c(=O)o2)CC1`, the melting point lay in the range of 195 to 196 °C.

Compound `COc1ccc(C2CC(c3ccc(O)cc3)C2)cc1` (configuration not stated) came in with a melting point of 96 to 110 °C.

`CCSc1nc(NC(C)=O)ccc1F`: the melting point fell in the range of 110 to 114 °C.

With `Cc1cc(CC(=O)OC(C)(C)C)ccc1NC(=O)Nc1ccccc1F`, the melting point is 89 to 91 °C.

For the compound `CCCn1nc2c(N)nc3ccccc3c2c1CCCc1cc(-c2ccccc2)no1`, the melting point lay in the range of 176 to 178 °C.

`Cc1noc(NC(=O)N2CCN(c3nccc(-c4ccccc4F)n3)CC2)c1C` displayed a melting point of 194 to 195 °C.

`COC(=O)COCCOc1ccc([N+](=O)[O-])cc1` registered a melting point of 96 to 97.8 °C.

In turn, `CC(C)(C)OC(=O)N1CCC(OCc2ccccc2)C1CC(=O)Cn1cnc2cccc(C(F)(F)F)c2c1=O` (configuration not stated) showed a melting point of 218 °C.

For the compound `COc1cc(C(C)C)c2c(c1)S(=O)(=O)N(COC(=O)c1c(C)ccnc1C)C2=O`, the melting point fell in the range of 132 to 134 °C.

Consider `CC(=S)NC[C@H]1CN(c2ccc(N3CCN(C(=O)CO)CC3)c(F)c2)C(=O)O1`, for which the melting point lay within 163 to 165 °C.

In turn, `COC(=O)C1=C(SC)N(c2ccc(Cl)cc2Cl)CCC1` showed a melting point of 83 to 86 °C.

For the compound `CC1=C(C)C(O)N(c2nnc(C(C)(C)C)s2)C1=O` (configuration not stated), the melting point fell in the range of 179 to 182 °C.

`COC(=O)C1=C(CF)NC(C)=C(C(=O)OC(C)C)C1c1cccc([N+](=O)[O-])c1Cl` (configuration not stated) came in with a melting point of 156 to 157 °C.

With `COC(=O)c1nc(S(C)(=O)=O)ncc1Cl`, the melting point worked out at 96 °C.

`COc1ncc(Cl)cc1C1OC(=O)NC1=O` (configuration not stated) registered a melting point of 199 to 204 °C.

With `O=C1Nc2cccc(-c3cccc(NC(=O)c4ccc([N+](=O)[O-])cc4)c3)c2/C1=C/c1ccc[nH]1`, the melting point is 157 to 159 °C.

For `CC(C)C1(C)N=C(c2ccc(C(C)(C)O)cn2)NC1=O` (configuration not stated), the melting point is 166 to 168 °C.

Regarding `Cc1c(C)c2c(c(C)c1NC(=O)c1ccc(F)cc1)C(c1ccc(C(C)C)cc1)C1(CCN(C)CC1)O2` (configuration not stated), the melting point fell in the range of 271 to 272 °C.

As to `O=C(O)C(=O)N1CCC(Cc2ccc(Cl)cc2)CC1`, the melting point was 147 to 148 °C.

`Cc1cc(C)cc(N(CCCC(N)=O)Cc2ccc3nc(NCCCN4CCOCC4)n(Cc4cccc5c4ncn5C)c3c2)c1` yielded a melting point of 206 °C.

For `COc1ccc(C2=NN(c3csc(C)n3)C(=O)[C@H]3CCCC[C@@H]23)cc1OC` (relative stereo), the melting point lay within 135 to 137 °C.

As to `CN(C)C(=O)C(CCN1CCC(Nc2nc3cncnc3n2Cc2ccccn2)CC1)(c1ccccc1)c1ccccc1`, the melting point was determined as 192 °C.

Turning to `CC(=O)SCCC1C(=O)N2CCCC(C(=O)OC(C)(C)C)N2C1=O` (configuration not stated), the melting point is 86 to 88 °C.

In turn, `COc1cnc(CSc2nc3cc4c(cc3[nH]2)OCO4)cc1OC` yielded a melting point of 198 to 200 °C.

In turn, `O=C(NC(CS)Cc1ccccc1)N1CCSCC1` (single isomer, unassigned; (+)) displayed a melting point of 98 to 100 °C.

Regarding `CC(NC(=O)c1cc(Cl)cc(Br)c1NC(=O)c1cc(Br)nn1-c1ncccc1Cl)C1CC1` (configuration not stated), the melting point was 244 to 247 °C.

Compound `COc1ccc(C=Cc2ccc([N+](=O)[O-])cc2C(F)(F)F)cc1` had a melting point of 120 to 123 °C.

In the case of `O=C(OCc1ccccc1)N1CC(O)(C(=O)O)C1`, the melting point was 134 to 136 °C.
